We go through one molecule from paper PMC9241943, “LcCCL28-25, Derived from Piscine Chemokine, Exhibits Antimicrobial Activity against Gram-Negative and Gram-Positive Bacteria In Vitro and In Vivo” (Microbiology Spectrum, 2022).

The structures appear in SMILES notation. ≈ marks a conversion by molar mass, not a printed value. Residues, ends and D or L forms follow the SMILES beside them.

For assay [1], the system named is P. aeruginosa FRD1 biofilm. The assay is described as follows: Biofilm eradication assay (crystal violet). The assay is classed as cell-based, Pseudomonas aeruginosa. As to conditions: for biofilm eradication rate: 24-h mature FRD1 biofilm, 2 h. How it is done:
(§1) In vitro static biofilm models have been reported in many studies ([45][–][47]). A Pseudomonas aeruginosa mucoid strain, FRD1, isolated from a cystic fibrosis patient, was used for the biofilm inhibition and eradication assay. The FRD1 strain was shock cultured to logarithmic growth stage at 37°C and 150 × g. After cleaning using PBS and centrifuging thrice, the bacteria were resuspended in MHB medium (with 0.2% glucose) and gradient diluted to an OD600 value of ~0.01.
For the eradication assay, biofilms of the FRD1 strain were grown in a 96-well plate. Briefly, 100-μL amounts of the bacterial suspension were plated and incubated at 37°C for 24 h. Then, wells containing the biofilms were washed thrice using PBS. The peptide was serially diluted in MHB medium (with 0.2% glucose) and added to the 96-well plates (100 μL/well). The plates were incubated for 2 h at 37°C. Finally, bacterial biofilms were quantified as described above for the biofilm inhibition assay.

In assay [2] the test system is P. aeruginosa FRD1 biofilm. The assay is described as follows: Biofilm inhibition assay (crystal violet). The assay is classed as cell-based, Pseudomonas aeruginosa. As to conditions: P. aeruginosa FRD1, 6.25 μg/mL (0.5× MIC), 37°C 24 h, triplicate. How it is done:
as §1
For the biofilm inhibition assay, 90-μL amounts of bacterial suspensions and 10-μL amounts of increasing concentrations of the peptide were added to a 96-well plate and coincubated at 37°C for 24 h. Then, bacterial biofilms were quantified as follows: (i) planktonic bacteria were removed by washing thrice using PBS, (ii) biofilm bacteria were fixed in 100 μL of 4% paraformaldehyde at room temperature for 15 min and (iii) stained with 100 μL of 0.1% crystal violet for 30 min, (iv) the dye was removed, followed by washing twice using PBS, adding 200 μL of 95% ethanol to each well to dissolve the crystal violet, and finally, (v) absorbance was measured at 590 nm using an EnSpire multimode plate reader (PerkinElmer, Singapore).

Assay [3] concerns Aeromonas hydrophila ATCC 7966. The assay is classed as cell-based. The settings on record: ATCC 7966, 2 h. How it is done:
(§2) The MIC assays were performed as previously described ([43]). Briefly, peptides were plated in a 2-fold dilution series (50 μL/well) of Mueller-Hinton broth (MHB) in Costar 96-well cell culture plates (Corning, NY, USA). Three repeats were set for each concentration. E. coli ATCC 25922, A. hydrophila ATCC 7966, P. aeruginosa PAO1, P. aeruginosa FRD1, S. aureus ATCC 25923, S. agalactiae ATCC 13813, S. pneumoniae ATCC 49619, methicillin-resistant S. aureus ATCC 43300, and methicillin-resistant S. aureus USA300 were cultured in Luria-Bertani (LB) medium, while K. pneumoniae CMCC46117 was cultured in tryptic soy broth (TSB) medium. Incubation was done at 37°C and 150 × g for 12 h. Bacteria were transferred to fresh MHB at a ratio of 1% (vol/vol) and incubated to reach a logarithmic growth phase. Then, 50 μL of a bacterial suspension at 4 × 10^6 CFU/mL was added to each well. […]

For assay [4], the system named is Klebsiella pneumoniae CMCC46117. The assay is classed as cell-based. The settings on record: CMCC46117, 2 h. How it is done: as §2
Another assay relates to Gram-negative bacteria. The assay is described as follows: Time-kill curves (4x MIC). The assay is classed as cell-based. The settings on record: 4× MIC. How it is done: (§3) Consistent with previous reports, time-kill curves of lcCCL28-25 against Gram-negative and Gram-positive bacteria were performed under 4× MIC conditions ([44]). Bacteria were incubated to the logarithmic growth stage. Bacterial cells in the logarithmic growth phase were diluted to achieve log(CFU/mL) values of ~5 to 6 and incubated with lcCCL28-25 for 1, 2, 4, 8, 16, 30, 60, 120, and 240 min. At each time point, 50-μL amounts of the samples were diluted to different concentrations and plated onto agar plates. After overnight incubation, the numbers of colonies on the plates were counted.

For a further assay, the system named is Gram-positive bacteria. The assay can be described thus: Time-kill curves (4x MIC). The assay is classed as cell-based. As to conditions: 4× MIC. Here is the method:
as §3

As to `CSCC[C@H](NC(=O)[C@H](Cc1c[nH]c2ccccc12)NC(=O)[C@H](CCCCN)NC(=O)[C@@H]1CCCN1C(=O)[C@H](Cc1c[nH]cn1)NC(=O)[C@H](C)N)C(=O)N[C@@H](CCC(=O)O)C(=O)N[C@H](C(=O)N[C@H](C(=O)N[C@@H](CCCNC(=N)N)C(=O)N[C@@H](CO)C(=O)N[C@@H](CCCNC(=N)N)C(=O)N[C@@H](CCC(N)=O)C(=O)N[C@@H](CCCNC(=N)N)C(=O)N[C@@H](CCCCN)C(=O)N[C@@H](CCCCN)C(=O)N[C@@H](CCCCN)C(=O)N[C@@H](Cc1c[nH]cn1)C(=O)N[C@@H](CC(N)=O)C(=O)N[C@@H](CCCCN)C(=O)N[C@@H](CCCNC(=N)N)C(=O)N[C@@H](CCCNC(=N)N)C(=O)N[C@@H](C)C(=O)N[C@H](C(=O)N[C@@H](Cc1ccc(O)cc1)C(=O)O)[C@@H](C)O)C(C)C)C(C)C` [lcCCL28-25] (H-AHPKWMEVVRSRQRKKKHNKRRATY-OH; N-terminus and C-terminus assumed), the biofilm eradication rate entry is “more than 80%” in assay [1] (12.5 μg/mL) and “above 90%” in assay [1] (25 μg/mL). In addition, in assay [1] (24-h mature P. aeruginosa FRD1 biofilm, 2 h treatment, crystal violet), the “concentration required to eradicate ~50% of biofilm” value stood at 3.13 µg/mL. Also, in assay [2], the “reduction of biofilm formation” value is on record as ~ 64%. Besides, the MIC – broadly, the lowest concentration found to suppress growth – was over 50.00 µg/mL in assay [3] and 25.00 µg/mL (≈ 7.83 µM) in assay [4]. Moreover, the “time for CFU counts to be reduced by more than half” value with Gram-negative bacteria is reported as “more than 1 h”; in the assay with Gram-positive bacteria, at most 10 min.
